# Where a SMILES comes first, the peptide text is derived from it. [ ]: non-standard residue; d: D form. The star is where a group is joined. 2Nal = N[C@@H](Cc1ccc2ccccc2c1)C(=O)O; Cha = N[C@@H](CC1CCCCC1)C(=O)O; Tle = CC(C)(C)[C@H](N)C(=O)O; Boc = CC(C)(C)OC(=O)*; tBu = CC(C)(C)*
# Columns and labels:
# Format in all cases: biochemical, Empedobacter brevis
# [1] = test system: peptide-forming enzyme (Mono S fraction enzyme); experiment: Enzyme substrate specificity (1)-(10), (13), (14): peptide production; parameters: key: +: those peptides for which production was confirmed but which were unable to be quantified due to the absence of a standard; a trace amount; conditions: 0.1 unit enzyme, 25° C.
# Protocol: (§1) Ester specificity was examined in the case of using L-amino acid ester for the carboxy component. 2 μl of the same enzyme fraction as used in Example 5 was added to 100 μl of 100 mM borate buffer (pH 9.0) containing the carboxy components indicated in Table 4 at 100 mM, 200 mM L-glutamine and 10 mM EDTA, and allowed to react at 25° C. for 2 hours. HCl represents hydrochloride in Table 4.
# (§2) Peptide production was examined in the case of using L-alanine methyl ester for the carboxy component and using various L-amino acids for the amine component.
# (§3) Peptide production was examined in the case of using various types of L-amino acid methyl esters for the carboxy component and using L-glutamine for the amine component. 2 μl of the same enzyme fraction as used in Example 5 was added to 100 μl of 100 mM borate buffer (pH 9.0) containing the L-amino acid methyl ester hydrochloride salts (AA-OMe.HCl) shown in Table 6 at 100 mM, 150 mM L-glutamine and 10 mM EDTA, and allowed to react at 25° C. for 3 hours. […] Furthermore, Tween-80 was added to the reaction system to a final concentration of 0.1% in the case of using L-Trp-OMe and L-Tyr-OMe.
# (§4) Peptide production was examined in the case of using various L-amino acid methyl esters for the carboxy component and various L-amino acids for the amine component. 2 μl of the same enzyme fraction as used in Example 5 was added to 100 μl of 100 mM borate buffer (pH 9.0) containing the L-amino acid methyl ester hydrochloride salts (AA-OMe.HCl) shown in Table 7 at 100 mM, the L-amino acids shown in Table 7 at 150 mM and 10 mM EDTA, and allowed to react at 25° C. for 3 hours. The “tr” indicates a trace amount. Furthermore, Tween-80 was added to the reaction system to a final concentration of 0.1% in the case of using L-Trp-OMe.
# Peptide production was examined in the case of using the L or D forms of various amino acid methyl esters for the carboxy component, and the L or D forms of various amino acids for the amine component. 2 μl of the same enzyme fraction as used in Example 5 was added to 100 μl of 100 mM borate buffer (pH 9.0) containing the various amino acid methyl ester hydrochloride salts (AA-OMe HCl) shown in Table 8 at 100 mM, the various amino acids shown in Table 8 at 150 mM and 10 mM EDTA, and allowed to react at 25° C. for 3 hours. The “tr” indicates a trace amount.
# Peptide production was examined using various L-amino acid amides for the carboxy component, and various L-amino acids for the amine component. 2 μl of the same enzyme fraction as that used in Example 5 was added to 100 μl of 100 mM borate buffer (pH 9.0) containing the L-amino acid amide hydrochloride salt (M-NH2.HCl) shown in Table 9 at 100 mM, the L-amino acids shown in Table 9 at 150 mM and 10 mM EDTA, and allowed to react at 25° C. for 3 hours.
# Peptide production was examined in the case of using various L-alanine methyl esters for the carboxy component and C-protected L-amino acids for the amine component. 2 μl of the same enzyme fraction as used in Example 5 was added to 100 μl of 100 mM borate buffer (pH 9.0) containing the L-alanine methyl ester hydrochloride hydrochloride salt (Ala-OMe.HCl) shown in Table 10 at 100 mM, the L-amino acid amide hydrochloride salts shown in Table 10 at 150 mM and 10 mM EDTA, and allowed to react at 25° C. for 3 hours.
# Peptide production was examined in the case of using various amino acid methyl esters for the carboxy component and methylamine for the amine component. 2 μl of the same enzyme fraction as used in Example 5 was added to 100 μl of 100 mM borate buffer (pH 9.0) containing the amino acid methyl ester hydrochloride salt (M-OMe.HCl) shown in Table 11 at 100 mM, the methylamine shown in Table 11 at 150 mM and 10 mM EDTA, and allowed to react at 25° C. for 3 hours.
# Peptide production was examined in the case of using […] for the carboxy component or β-amino acid for the amine component.
# [2] = test system: peptide-forming enzyme (Mono S fraction enzyme); experiment: as above; parameters: key: +: those for which production was confirmed but which were unable to be quantified due to the absence of a standard; a trace amount; conditions: 0.1 unit enzyme, 25° C.
# Protocol: as §1, §2, §3, §4
# Peptide production was examined in the case of using the L or D forms of various amino acid methyl esters for the carboxy component, and the L or D forms of various amino acids for the amine component. […]
# [3] = test system: peptide-forming enzyme (Mono S fraction enzyme); experiment: Production of L-alanyl-L-glutamine from L-alanine methyl ester and L-glutamine with enzyme fraction; conditions: 100 mM L-alanine methyl ester hydrochloride, 200 mM L-glutamine, 10 mM EDTA, pH 9.0, 18° C.; FIG. 3
# Protocol: On the other hand, there was hardly any production of L-Ala-L-Gln observed in an enzyme-non-added lot, and the […] was only about 0.07 mM after reacting for 120 minutes.
# [4] = test system: peptide-forming enzyme (Mono S fraction enzyme); experiment: Enzyme substrate specificity (1)-(10), (13), (14): peptide production; conditions: L-amino acid ester 100 mM, peptide (amine component) 150 mM, pH 9.0, 25° C., 3 hours
# In short: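 Mono S enzyme fraction in 100 mM borate buffer (pH 9.0) with 10 mM EDTA and 100 mM carboxy component (amino acid methyl esters or amides); amine components (L-glutamine, amino acids, amino acid amides or methylamine) at 150 mM, or 200 mM L-glutamine with varied esters. Reactions ran at 25° C for 2–3 hours; 0.1% Tween-80 added for Trp/Tyr-OMe.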
# [5] = carboxy component 40 mM, amine component 40 mM, reaction time 3 hr
# [6] = carboxy component 100 mM, amine component 150 mM, reaction time 2 hr
# [7] = carboxy component 100 mM, amine component 150 mM, reaction time 3 hr
compound,measurement,setting,value
NC(=O)CC[C@H](NC(=O)[C@@H](N)Cc1ccc2ccccc2c1)C(=O)O [H-2-Nal-H-Gln-OH] (H-[2Nal]-Gln-OH),Produced peptide,[1]; [5],tr
C[C@H](N)C(=O)N[C@@H](Cc1ccc2ccccc2c1)C(=O)O [H-Ala-2-Nal-OH] (H-Ala-[2Nal]-OH),Produced peptide,"[2]; carboxy component 20 mM, amine component 20 mM, reaction time 3 hr",+
N[C@@H](CC1CCCCC1)C(=O)N[C@@H](Cc1ccccc1)C(=O)O [H-CHA-Phe-OH] (H-[Cha]-Phe-OH),Produced peptide,[2]; [5],+
NC(=O)CC[C@H](NC(=O)[C@@H](N)Cc1ccc(Cl)cc1)C(=O)O [H-Cl-F-Phe-H-Gln-OH],Produced peptide,"[1]; carboxy component 25 mM, amine component 50 mM, reaction time 3 hr",tr
CC(C)(C)OC(=O)NCCCC[C@H](N)C(=O)N[C@@H](CCC(N)=O)C(=O)O [H-Lys(Boc)-Gln-OH] (H-Lys(Boc)-Gln-OH),Produced peptide,[2]; [6],+
CN[C@@H](C)C(=O)N[C@@H](Cc1ccccc1)C(=O)O [H-N-Me-Ala-Phe-OH],Produced peptide,[1]; [7],tr
CC(C)(C)OC[C@H](N)C(=O)N[C@@H](CCC(N)=O)C(=O)O [H-Ser(tBu)-Gln-OH] (H-Ser(tBu)-Gln-OH),Produced peptide,[1]; [6],tr
NC(=O)CC[C@H](NC(=O)[C@@H](N)Cc1ccc(F)cc1)C(=O)O [H-p-F-Phe-H-Gln-OH],Produced peptide,[1]; [7],tr
CC(C)(C)[C@H](N)C(=O)N[C@@H](CCC(N)=O)C(=O)O [H-t-Leu-H-Gln-OH] (H-[Tle]-Gln-OH),Produced peptide,[1]; [7],tr
L-Ala-L-Ala-L-Gln,"Peptide formed, enzyme-added lot",[3],1.3 mM
same,Produced peptide,[4],15.2 mM
